Laboratory results as given in patent publication US20240408162A1, “Use of Extract from Morus alba L. in the Preparation of a Medicament for Preventing and/or Treating a Hepatobiliary Disease” (BEIJING WEHAND-BIO PHARMACEUTICAL CO., LTD, priority 2022, published 2024).

Experiments:
3T3-L1 adipocytes = experiment: Secretion of adiponectin in 3T3-L1 adipocytes (ELISA of supernatant); format: cell-based; conditions: DNJ 80, 40, 20 μg/ml; summary statement
Experimental: Reduced adiponectin levels were independent risk factors for NAFLD and liver dysfunction. Adiponectin might activate liver AMPK, inhibit lipid synthesis, and promote lipid oxidation. Adiponectin might also affect inflammation of hepatic macrophages and fibrosis of hepatic stellate cells. 3T3-L1 pre-adipocytes were cultured in the medium containing calf serum and seeded into a 6-well plate at a density of 2×10^4 cells/ml. […] The supernatant was collected after culture for 8 days, and the concentration of adiponectin in the supernatant was detected using an ELISA kit.

HepG2 hepatocytes = experiment: Palmitic acid-treated HepG2 hepatocytes (non-alcoholic fatty liver model), triglyceride and cholesterol by kit; format: cell-based; conditions: PA-treated HepG2, 24 h, DNJ 20 μg/ml
Experimental: HepG2 hepatocytes were cultured overnight in a 6-well plate at a seeding density of 2×10^5 cells/ml after digestion. HepG2 cells were treated with palmitic acid (PA) to create a non-alcoholic fatty liver model, with 0.25% BSA treatment as a control. Cells in the model groups were separately administrated with extracts from Morus alba L. (designed to be 25 μg/ml (containing 17 μg/ml DNJ) based on total alkaloids (SZ-A)) obtained from Example 1, 20 μg/ml DNJ, 5 μg/ml FAG, or 5 μg/ml DAB, and cultured for 24 h. Cells were lysed with the lysis solution containing Triton x-100 after removal of the supernatant, and the triglyceride (TG) and cholesterol (TC) in hepatocytes were detected using a kit.

triglyceride (TG) level in hepatocytes (HepG2 hepatocytes; SZ-A 25 μg/ml (based on total alkaloids)): reduce the triglyceride level
cholesterol (TC) level in hepatocytes (HepG2 hepatocytes; SZ-A 25 μg/ml): reduced the cholesterol level
Compound: OC[C@H]1NC[C@H](O)[C@@H](O)[C@@H]1O [DNJ, 1-deoxynojirimycin]
concentration of adiponectin (3T3-L1 adipocytes): increase the concentration of adiponectin
